Assay [1] concerns the target GDP-bound NRAS wild-type protein (Homo sapiens, UniProt P01111). The assay is described as follows: Binding to NRAS by surface plasmon resonance (SPR), Single Cycle Kinetics. Particulars: for NRAS/KRAS (ratio of KD value with respect to NRAS to KD value with respect to KRAS): GDP-bound NRAS wild-type vs GDP-bound KRAS wild-type. A general note: Surface plasmon resonance follows binding to a sensor surface in real time, without labels.

The target of assay [2] is GDP-bound HRAS wild-type protein (Homo sapiens, UniProt P01112). The assay is described as follows: Binding to HRAS by surface plasmon resonance (SPR), Single Cycle Kinetics. Particulars: for HRAS/KRAS (ratio of KD value with respect to HRAS to KD value with respect to KRAS): GDP-bound HRAS wild-type vs GDP-bound KRAS wild-type.
[3] abbreviates: KD ratio NRAS/KRAS, class symbols.
[4] abbreviates: KD ratio HRAS/KRAS, class symbols.

Seven compounds from patent US20250230193A1, “CYCLIC COMPOUND HAVING SELECTIVE KRAS INHIBITORY EFFECT ON HRAS AND NRAS” (CHUGAI SEIYAKU KABUSHIKI KAISHA, priority 2022, published 2025) can be followed below.

Where a SMILES comes first, the peptide text is derived from it. Bridges are numbered along the chain shown (N, C = ends). [ ]: non-standard residue; d: D form. The star is where a group is joined. hPhe(3,5-F2-4-CF3) = N[C@@H](CCc1cc(F)c(C(F)(F)F)c(F)c1)C(=O)O; hPhe(3-Cl-4-CF3) = N[C@@H](CCc1ccc(C(F)(F)F)c(Cl)c1)C(=O)O; NPrPhe(4-CF3) = CCCN[C@@H](Cc1ccc(C(F)(F)F)cc1)C(=O)O; NPrPhe(4-Me) = CCCN[C@@H](Cc1ccc(C)cc1)C(=O)O; NMeGly(cPent) = CN[C@H](C(=O)O)C1CCCC1; Ac4c(3,3-F2) = NC1(C(=O)O)CC(F)(F)C1; NMeD = CN[C@@H](CC(=O)O)C(=O)O; NMeL = CN[C@@H](CC(C)C)C(=O)O; Morpholide = C1CN(*)CCO1; Ac5c = NC1(C(=O)O)CCCC1; Sar = CNCC(=O)O

Sequence of GDP-bound NRAS wild-type protein (P01111 whole entry): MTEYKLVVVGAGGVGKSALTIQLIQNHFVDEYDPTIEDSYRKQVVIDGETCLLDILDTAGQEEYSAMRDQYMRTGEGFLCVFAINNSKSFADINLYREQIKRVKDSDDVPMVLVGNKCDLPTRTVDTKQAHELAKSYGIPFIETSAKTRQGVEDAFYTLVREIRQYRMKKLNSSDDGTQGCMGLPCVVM
Sequence of GDP-bound HRAS wild-type protein (P01112 whole entry): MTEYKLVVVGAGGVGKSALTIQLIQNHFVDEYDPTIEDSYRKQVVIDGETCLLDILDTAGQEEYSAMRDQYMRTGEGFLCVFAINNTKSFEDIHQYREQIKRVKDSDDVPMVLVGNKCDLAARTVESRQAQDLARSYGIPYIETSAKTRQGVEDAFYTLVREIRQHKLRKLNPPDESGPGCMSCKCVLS

Consider `CCCN1C(=O)CN(C)C(=O)CN(C)C(=O)[C@H]([C@@H](C)CC)NC(=O)[C@H](CC(C)C)N(C)C(=O)C[C@@H](C(=O)N2CCOCC2)N(C)C(=O)[C@H](C2CCCC2)N(C)C(=O)C2(CC(F)(F)C2)NC(=O)[C@@H]2CCCN2C(=O)[C@H](CCc2cc(F)c(C(F)(F)F)c(F)c2)NC(=O)CN(C)C(=O)[C@@H]1Cc1ccc(C(F)(F)F)cc1` [PP0766] ([NMeL]I[Sar][Sar][NPrPhe(4-CF3)][Sar][hPhe(3,5-F2-4-CF3)]P[Ac4c(3,3-F2)][NMeGly(cPent)][NMeD]-Morpholide; lactam N-11), for which the “NRAS/KRAS (ratio of KD value with respect to GDP-bound NRAS wild-type protein to KD value with respect to KRAS)” value in assay [1] (KD ratio NRAS/KRAS, SPR) is “B (a compound having 3 or more and less than 10 is denoted as B)”. Further, the “HRAS/KRAS (ratio of KD value with respect to GDP-bound HRAS wild-type protein to KD value with respect to KRAS)” value in assay [2] (KD ratio HRAS/KRAS, SPR) is “B (a compound having 3 or more and less than 10 is denoted as B)”.
Consider `CC[C@H](C)[C@@H]1NC(=O)[C@H](CC(C)C)N(C)C(=O)C[C@@H](C(=O)N2CCOCC2)N(C)C(=O)[C@H](C2CCCC2)N(C)C(=O)C2(CCC2)NC(=O)[C@@H]2[C@H]3C[C@H]3CN2C(=O)[C@H](CCc2cc(F)c(C(F)(F)F)c(F)c2)NC(=O)CN(C)C(=O)[C@H](Cc2ccc(C(F)(F)F)cc2)N2CCCCC[C@@H](C2=O)N(C)C(=O)CN(C)C1=O` [PP0819], for which, in assay [1] (SPR), the “NRAS/KRAS (ratio of KD value with respect to NRAS to KD value with respect to KRAS)” value was “A (a compound having 10 or more and less than 20 is denoted as A)”. The “HRAS/KRAS (ratio of KD value with respect to HRAS to KD value with respect to KRAS)” value in assay [2] (SPR) was “B (a compound having 3 or more and less than 10 is denoted as B)”.
Regarding `C=CC[C@H]1C(=O)N[C@@H]([C@@H](C)CC)C(=O)N(C)CC(=O)N(C)[C@H]2C/C=C\CCN(C2=O)[C@@H](Cc2ccc(C(F)(F)F)cc2)C(=O)N(C)CC(=O)N[C@@H](CCc2cc(F)c(C(F)(F)F)c(F)c2)C(=O)N2C[C@H](OCC)C[C@H]2C(=O)NC2(CCC2)C(=O)N(C)[C@@H](C2CCCC2)C(=O)N(C)[C@H](C(=O)N(C)C)CC(=O)N1C` [PP1114], in assay [1] (SPR), the “NRAS/KRAS (ratio of KD value with respect to NRAS to KD value with respect to KRAS)” value is “A (a compound having 10 or more and less than 20 is denoted as A)”. In addition, the “HRAS/KRAS (ratio of KD value with respect to HRAS to KD value with respect to KRAS)” value in assay [2] (SPR) is “A (a compound having 10 or more and less than 20 is denoted as A)”.
For `CCC[C@H]1C(=O)N[C@@H]([C@@H](C)CC)C(=O)N(C)CC(=O)N(C)[C@H]2C/C=C\CCN(C2=O)[C@@H](Cc2ccc(C)cc2)C(=O)N(C)CC(=O)N[C@@H](CCc2cc(Cl)c3sccc3c2)C(=O)N2C[C@H](OCC)C[C@H]2C(=O)NC2(CC(C)(C)C2)C(=O)N(C)[C@@H](C2CCCC2)C(=O)N(C)[C@H](C(=O)N(C)C)CC(=O)N1C` [PP2947], the “NRAS/KRAS (ratio of KD value with respect to GDP-bound NRAS wild-type protein to KD value with respect to KRAS)” value in assay [1] (setting [3]) was “B (a compound having 3 or more and less than 10 is denoted as B)”. Besides, the “HRAS/KRAS (ratio of KD value with respect to GDP-bound HRAS wild-type protein to KD value with respect to KRAS)” value in assay [2] (setting [4]) was “B (a compound having 3 or more and less than 10 is denoted as B)”.
Regarding `CCCN1C(=O)CN(C)C(=O)CN(C)C(=O)[C@H]([C@@H](C)CC)NC(=O)[C@H](CC(C)C)N(C)C(=O)C[C@@H](C(=O)N2CCOCC2)N(C)C(=O)[C@H](C2CCCC2)N(C)C(=O)C2(CCCC2)NC(=O)[C@@H]2CCCN2C(=O)[C@H](CCc2ccc(C(F)(F)F)c(Cl)c2)NC(=O)CN(C)C(=O)[C@@H]1Cc1ccc(C)cc1` [PP0059] ([NMeL]I[Sar][Sar][NPrPhe(4-Me)][Sar][hPhe(3-Cl-4-CF3)]P[Ac5c][NMeGly(cPent)][NMeD]-Morpholide; lactam N-11), the “NRAS/KRAS (ratio of KD for GDP-bound NRAS wild-type to KD for KRAS)” value in assay [1] (KD ratio NRAS/KRAS, SPR) is “B (a compound having 3 or more and less than 10 is denoted as B)”. Also, in assay [2] (KD ratio HRAS/KRAS, SPR), the “HRAS/KRAS (ratio of KD for GDP-bound HRAS wild-type to KD for KRAS)” value was “C (A compound having a KD ratio of 0.1 or more and less than 3 is denoted as C)”.
Take `CCCO[C@@H]1C[C@H]2C(=O)NC3(CC(C)(C)C3)C(=O)N(C)[C@@H](C(CC)CC)C(=O)N(C)[C@H](C(=O)N(C)C)CC(=O)N(C)[C@H]3CCCCc4ccc(cc4)C[C@@H](C(=O)N(C)CC(=O)N[C@@H](CCc4ccc(C(F)(F)F)c(OC)c4)C(=O)N2C1)N1CC/C=C\C[C@@H](C1=O)N(C)C(=O)CN(C)C(=O)[C@H]([C@@H](C)CC)NC3=O` [PP3038]: the “NRAS/KRAS (ratio of KD value with respect to GDP-bound NRAS wild-type protein to KD value with respect to KRAS)” value in assay [1] (KD ratio NRAS/KRAS, SPR, GDP-bound wild-type proteins) is “A (a compound having 10 or more and less than 20 is denoted as A)”. The “HRAS/KRAS (ratio of KD value with respect to GDP-bound HRAS wild-type protein to KD value with respect to KRAS)” value in assay [2] (KD ratio HRAS/KRAS, SPR, GDP-bound wild-type proteins) was “A (a compound having 10 or more and less than 20 is denoted as A)”.
Take `CCCC[C@H]1C(=O)N[C@@H]([C@@H](C)CC)C(=O)N(C)CC(=O)N(C)[C@H]2C/C=C\CCN(C2=O)[C@@H](Cc2ccc(C(F)(F)F)cc2)C(=O)N(C)CC(=O)N[C@@H](CCc2ccc(C(F)(F)F)c(Cl)c2)C(=O)N2C[C@H](OCC)C[C@H]2C(=O)NC2(CCC2)C(=O)N(C)[C@@H](C2CCCC2)C(=O)N(C)[C@H](C(=O)N(C)CC)CC(=O)N1C` [PP2841]: the “NRAS/KRAS (ratio of KD value with respect to GDP-bound NRAS wild-type protein to KD value with respect to KRAS)” value in assay [1] (setting [3]) is “A (a compound having 10 or more and less than 20 is denoted as A)”. Also, the “HRAS/KRAS (ratio of KD value with respect to GDP-bound HRAS wild-type protein to KD value with respect to KRAS)” value in assay [2] (setting [4]) was “A (a compound having 10 or more and less than 20 is denoted as A)”.
